2 compounds from ChEMBL document CHEMBL5375991, “Bioorthogonal Bond Cleavage Chemistry for On-demand Prodrug Activation: Opportunities and Challenges” (J Med Chem, 2023) can be followed below.

Data set [1] is described as follows: Stability of compound in 3% DMSO/PBS measured after 24 hrs relative to control. The following applies: read-out: Stability. Format: physicochemical.
The nature of data set [2]: Stability in human plasma measured after 4 hrs. The data set is classed as ADME, cell-free. To be noted: read-out: Stability.

For the compound `O=C(O)c1ccc(-c2[s+]c(-c3ccc(N(c4ccccc4)c4ccccc4)cc3)sc2[O-])cc1`, the remaining at 24 h in data set [1] stood at 47.6%.
On to `CCC[N+]1=C(/C=C/C2=C3Oc4cc(NC(=O)O[C@@H]5/C=C/CCCCC5)ccc4C=C3CCC2)C(C)(C)c2ccccc21`, for which the remaining at 4 h in data set [2] amounted to 77%.
